Format in all cases: cell-based
Assay [1] has as its system Eubacterium lentum GAI 5242. Briefly: MIC, antibacterial spectrum (anaerobic bacteria). The settings on record: Eggerthella lenta, GAI5242; Eubacterium lentum GAI 5242, Gram +, 10^6 cells/ml, anaerobic; read-out: MIC.
Assay [2] deals with Acinetobacter anitratus IID 876. Briefly: MIC, antibacterial spectrum (aerobic bacteria). The settings on record: Acinetobacter calcoaceticus, IID876; Acinetobacter anitratus IID 876, Gram -, 10^6 cells/ml, aerobic; read-out: MIC.
The subject of assay [3] is Peptostreptococcus anaerobius KYA 27337. Briefly: MIC, antibacterial spectrum (anaerobic bacteria). The settings on record: KYA27337; Peptostreptococcus anaerobius KYA 27337, Gram +, 10^6 cells/ml, anaerobic; read-out: MIC.
Assay [4] concerns Bacillus subtilis PCI 219. In words: MIC, antibacterial spectrum (aerobic bacteria). As to conditions: PCI219; Bacillus subtilis PCI 219, Gram +, 10^6 cells/ml, aerobic; read-out: MIC.
The test system of the next assay is P. mirabilis IID 994. Briefly: MIC, antibacterial spectrum (aerobic bacteria). The settings on record: Proteus mirabilis, IID994; P. mirabilis IID 994, Gram -, 10^6 cells/ml, aerobic; read-out: MIC.
Assay [5] relates to Morganella morganii IID 602. Briefly: MIC, antibacterial spectrum (aerobic bacteria). As to conditions: IID602, Morganella morganii IID 602, Gram -, 10^6 cells/ml.
Assay [6] deals with S. aureus IID 670 (Terajima). Briefly: MIC, antibacterial spectrum (aerobic bacteria). The settings on record: Staphylococcus aureus, IID670; S. aureus IID 670 (Terajima), Gram +, 10^6 cells/ml, aerobic; read-out: MIC.
Assay [7] concerns Serratia marcescens IID 618. In words: MIC, antibacterial spectrum (aerobic bacteria). The settings on record: IID618.
The test system of the next assay is P. aeruginosa IID 1210. In words: MIC, antibacterial spectrum (aerobic bacteria). As to conditions: Pseudomonas aeruginosa, IID1210; P. aeruginosa IID 1210, Gram -, 10^6 cells/ml, aerobic; read-out: MIC.
Assay [8] deals with Escherichia coli NIHJ JC-2. Briefly: MIC, antibacterial spectrum (aerobic bacteria). The settings on record: NIHJJC2, Escherichia coli NIHJ JC-2, Gram -, 10^6 cells/ml.
The next assay has as its system Shigella sonnei IID 969. In words: MIC, antibacterial spectrum (aerobic bacteria). The settings on record: IID969, Shigella sonnei IID 969, Gram -, 10^6 cells/ml. The method, then: Minimal inhibitory concentrations (MICs) were determined in accordance with the method recommended by Japan Society of Chemotherapy.
Assay [9] concerns Clostridium difficile I-E. In words: MIC, antibacterial spectrum (anaerobic bacteria). The settings on record: Clostridioides difficile, Gram +, 10^6 cells/ml.
Assay [10] deals with Pseudomonas aeruginosa V-1. In words: MIC, antibacterial spectrum (aerobic bacteria). As to conditions: V1.
The test system of a further assay is P. cepacia KY 84. In words: MIC, antibacterial spectrum (aerobic bacteria). As to conditions: Burkholderia cepacia, KY84, P. cepacia KY 84, Gram -, 10^6 cells/ml.
Assay [11] deals with Staphylococcus aureus 209 P. In words: MIC, antibacterial spectrum (aerobic bacteria). The settings on record: Staphylococcus aureus 209 P, Gram +, 10^6 cells/ml, aerobic; read-out: MIC.
A further assay deals with S. epidermidis IID 866. Briefly: MIC, antibacterial spectrum (aerobic bacteria). The settings on record: Staphylococcus epidermidis, IID866; S. epidermidis IID 866, Gram +, 10^6 cells/ml, aerobic; read-out: MIC.
A further assay concerns P. maltophilia GIFU 2491. Briefly: MIC, antibacterial spectrum (aerobic bacteria). The settings on record: Stenotrophomonas maltophilia, GIFU2491; P. maltophilia GIFU 2491, Gram -, 10^6 cells/ml, aerobic; read-out: MIC.
The subject of a further assay is B. distasonis 8503. In words: MIC, antibacterial spectrum (anaerobic bacteria). The settings on record: Parabacteroides distasonis; B. distasonis 8503, Gram -, 10^6 cells/ml, anaerobic; read-out: MIC.
The subject of a further assay is P. cepacia GIFU 518. In words: MIC, antibacterial spectrum (aerobic bacteria). The settings on record: Burkholderia cepacia, GIFU518; P. cepacia GIFU 518, Gram -, 10^6 cells/ml, aerobic; read-out: MIC.
Setting [12] is: Serratia marcescens IID 618, Gram -, 10^6 cells/ml, aerobic, read-out: MIC.
[13] abbreviates: Pseudomonas aeruginosa V-1, Gram -, 10^6 cells/ml, aerobic, read-out: MIC.

The structures appear in SMILES notation. Converted amounts (≈) assume the structure as drawn. Where a name gives a salt, the structure may show the parent alone. Read-outs that look alike come from different tables or passages of the source.

As a reminder, the MIC is the least concentration at which growth counts as inhibited. Regarding `O=C(O)c1cn(C2CC2)c2c(F)c(N3CCC(CNCCO)C3)c(F)cc2c1=O` (stereo not shown) [Exp. 1, 1-Cyclopropyl-6,8-difluoro-1,4-dihydro-7-[3-(2-hydroxyethylaminomethyl)-1-pyrrolidinyl]-4-oxo-3-quinolinecarboxylic acid], the MIC in [1] is 0.78 µg/mL (≈ 1.91 µM); in assay [2], 0.2 µg/mL (≈ 0.491 µM); in assay [3], at most 0.05 µg/mL; in assay [4], 0.0125 µg/mL (≈ 0.0307 µM); with P. mirabilis IID 994, 0.05 µg/mL (≈ 0.123 µM); in assay [5], 0.39 µg/mL (≈ 0.957 µM). Also, the MIC in assay [6] is 0.05 µg/mL (≈ 0.123 µM); in [7] (setting [12]), 0.39 µg/mL (≈ 0.957 µM); with P. aeruginosa IID 1210, 1.56 µg/mL (≈ 3.83 µM); in assay [8] it was 0.025 µg/mL (≈ 0.0614 µM); with Shigella sonnei IID 969 it was 0.05 µg/mL (≈ 0.123 µM); in assay [9], 0.78 µg/mL (≈ 1.91 µM). For the same molecule, the MIC is 0.78 µg/mL (≈ 1.91 µM) in assay [10] (setting [13]), 3.13 µg/mL (≈ 7.68 µM) against P. cepacia KY 84, 0.05 µg/mL (≈ 0.123 µM) in assay [11] and 0.025 µg/mL (≈ 0.0614 µM) in the assay on S. epidermidis IID 866.

For `O=C(O)c1cn(C2CC2)c2c(Cl)c(N3CCC(CNCCO)C3)c(F)cc2c1=O` (stereo not shown) [Exp. 3, 8-Chloro-1-cyclopropyl-6-fluoro-1,4-dihydro-7-(3-(2-hydroxyethylaminomethyl)-1-pyrrolidinyl]-4-oxo-3-quinolinecarboxylic acid], the minimal inhibitory concentration (MIC) in assay [1] was 0.2 µg/mL (≈ 0.472 µM); in assay [2], 0.1 µg/mL (≈ 0.236 µM); in [3], 0.025 µg/mL (≈ 0.059 µM); in assay [4] it was 0.0125 µg/mL (≈ 0.0295 µM); with P. mirabilis IID 994, 0.05 µg/mL (≈ 0.118 µM); in assay [5], 0.39 µg/mL (≈ 0.92 µM). Besides, the MIC is 0.2 µg/mL (≈ 0.472 µM) with P. maltophilia GIFU 2491; 0.025 µg/mL (≈ 0.059 µM) in [6]; 0.2 µg/mL (≈ 0.472 µM) in assay [7] (setting [12]); 0.78 µg/mL (≈ 1.84 µM) in the assay with B. distasonis 8503; 1.56 µg/mL (≈ 3.68 µM) with P. aeruginosa IID 1210; 0.0125 µg/mL (≈ 0.0295 µM) in assay [8]. In addition, the MIC was 0.05 µg/mL (≈ 0.118 µM) in the assay on Shigella sonnei IID 969; 0.2 µg/mL (≈ 0.472 µM) in [9]; 0.2 µg/mL (≈ 0.472 µM) in [10] (setting [13]); 1.56 µg/mL (≈ 3.68 µM) with P. cepacia GIFU 518; 0.0125 µg/mL (≈ 0.0295 µM) in [11]; 0.0125 µg/mL (≈ 0.0295 µM) in the assay with S. epidermidis IID 866.

Consider `O=C(O)c1cn(C2CC2)c2cc(N3CCC(CNCCO)C3)c(F)cc2c1=O` (stereo not drawn) [Exp. 2, l-Cyclopropyl-6-fluoro-l,4-dihydro-7-[3-(2-hydroxyethylaminomethyl)-l-pyrrolidinyl]-4-oxo-3-quinolinecarboxylic acid hydrochloride], for which the MIC in [1] was 3.13 µg/mL; in assay [2], 3.13 µg/mL; in assay [3] it was 0.78 µg/mL; in [4] it was at most 0.05 µg/mL; in the assay with P. mirabilis IID 994 it was 0.39 µg/mL; in assay [5] it was 3.13 µg/mL. Moreover, the MIC in [6] turned out to be 0.2 µg/mL; in assay [7] (Serratia marcescens) it was 1.56 µg/mL; with P. aeruginosa IID 1210, 6.25 µg/mL; in assay [8], 0.1 µg/mL; in the assay with Shigella sonnei IID 969, 0.1 µg/mL; in assay [9], 25 µg/mL. The minimum inhibitory concentration (MIC) in [10] (Pseudomonas aeruginosa) turned out to be 1.56 µg/mL; in [11], 0.2 µg/mL; with S. epidermidis IID 866, 0.1 µg/mL.

These data come from patent EP0221541A2, “Quinolonecarboxylic acid derivatives and their preparation” (KYORIN PHARMACEUTICAL CO., LTD., priority 1985, dated 1987).
